Results on 16 compounds are retold here after patent US20240360178A1, “MACROCYCLIC IMMUNOMODULATORS” (Bristol-Myers Squibb Company, priority 2021, published 2024).

Structures are written as SMILES. Positions of bridges follow the written chain, without caps; N, C: chain ends. Non-standard residues stand in square brackets, D forms with d. Residues, ends and D or L forms follow the SMILES beside them. Bip = N[C@@H](Cc1ccc(-c2ccccc2)cc1)C(=O)O; NMeF = CN[C@@H](Cc1ccccc1)C(=O)O; dOrn = NCCC[C@@H](N)C(=O)O; dDab = NCC[C@@H](N)C(=O)O; NMeA = CN[C@@H](C)C(=O)O; Orn = NCCC[C@H](N)C(=O)O; Sar = CNCC(=O)O

For the assay, the target named is T1, human PD-1 (Jurkat-PD-1 cells) / PE-labeled human PD-L1-Ig (Homo sapiens, UniProt Q15116).
T1 construct: expressed in transfected cells; host or cells: Jurkat cell line over-expressing human PD-1
T1 sequence (Q15116 25-288): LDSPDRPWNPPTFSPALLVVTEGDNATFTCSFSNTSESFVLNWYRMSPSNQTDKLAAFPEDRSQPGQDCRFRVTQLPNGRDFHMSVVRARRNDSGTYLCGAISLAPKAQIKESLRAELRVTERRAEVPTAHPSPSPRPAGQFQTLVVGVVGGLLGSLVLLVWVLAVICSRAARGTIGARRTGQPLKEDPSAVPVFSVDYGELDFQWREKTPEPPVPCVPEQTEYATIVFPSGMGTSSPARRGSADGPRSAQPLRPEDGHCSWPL
Description: Jurkat-PD-1 Cell Binding High-Content Screening Assay (CBA); Jurkat hPD1-PDL1 assay. The conditions noted are these: Jurkat cell line over-expressing human PD-1; PE-labeled PD-L1-Ig 20 nM final; compound incubated 2 hours at 37° C.; read-out: Jurkat HPD1-PDL1 IC50. Summed up: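 Binding of phycoerythrin-conjugated PD-L1-Ig (20 nM final) to PD-1-overexpressing Jurkat cells was read by high-content imaging. Cells in DMEM/10% FCS were exposed to compound for 2 hours at 37° C before labeled ligand was added.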
One may read the IC50 as the concentration that inhibits the measured activity by half. Take `CC(C)C[C@@H]1NC(=O)[C@H](Cc2c[nH]c3ccccc23)NC(=O)[C@H](CC(=O)O)NC(=O)[C@H](Cc2ccc(O)cc2)NC(=O)[C@H](Cc2ccccc2)NC(=O)CSC[C@@H](C(=O)N[C@@H](C)C(N)=O)NC(=O)[C@H](CO)NC(=O)[C@H](C(C)C)NC(=O)[C@H](CC(C)C)NC(=O)[C@H](CC(N)=O)NC(=O)CN(C)C(=O)[C@@H](CCN)NC(=O)[C@H](C(C)C)NC(=O)[C@H](Cc2ccc(-c3ccccc3)cc2)NC1=O` [Example 1196] ({CH2CO}-FYDWL[Bip]V[dDab][Sar]NLVSCA-NH2; thioether N-14): the IC50 came to 0.95 µM.

As for `CC(C)C[C@@H]1NC(=O)[C@H](Cc2c[nH]c3ccccc23)NC(=O)[C@H](CC(=O)O)NC(=O)[C@H](Cc2ccc(O)cc2)NC(=O)[C@H](Cc2ccccc2)NC(=O)CSC[C@@H](C(=O)N[C@@H](C)C(N)=O)NC(=O)[C@H](CO)NC(=O)[C@H](C(C)C)NC(=O)[C@H](CC(C)C)NC(=O)[C@H](CC(N)=O)NC(=O)[C@H]2CCCN2C(=O)[C@@H](CCCCN)NC(=O)[C@H](C(C)C)NC(=O)[C@H](Cc2ccc(-c3ccccc3)cc2)NC1=O` [Example 1197] ({CH2CO}-FYDWL[Bip]V[dK][dP]NLVSCA-NH2; thioether N-14), the IC50 amounted to 0.42 µM.

Consider `CC(C)C[C@@H]1NC(=O)[C@H](Cc2c[nH]c3ccccc23)NC(=O)[C@H](CC(=O)O)NC(=O)[C@H](Cc2ccc(O)cc2)NC(=O)[C@H](Cc2ccccc2)NC(=O)CSC[C@@H](C(=O)N[C@@H](C)C(N)=O)NC(=O)[C@H](CO)NC(=O)[C@H](C(C)C)NC(=O)[C@H](CC(C)C)NC(=O)[C@H](CC(N)=O)NC(=O)CN(C)C(=O)[C@@H](CCCN)NC(=O)[C@H](C(C)C)NC(=O)[C@H](Cc2ccc(-c3ccccc3)cc2)NC1=O` [Example 1198] ({CH2CO}-FYDWL[Bip]V[dOrn][Sar]NLVSCA-NH2; thioether N-14), for which the IC50 was 0.76 µM.

`CC(C)C[C@@H]1NC(=O)[C@H](Cc2c[nH]c3ccccc23)NC(=O)[C@H](CC(=O)O)NC(=O)[C@H](Cc2ccc(O)cc2)NC(=O)[C@H](Cc2ccccc2)NC(=O)CSC[C@@H](C(=O)N[C@@H](C)C(N)=O)NC(=O)[C@H](CO)NC(=O)[C@H](C(C)C)NC(=O)[C@H](CC(C)C)NC(=O)[C@H](CC(N)=O)NC(=O)[C@H]2CCCN2C(=O)[C@H](CCCN)NC(=O)[C@H](C(C)C)NC(=O)[C@H](Cc2ccc(-c3ccccc3)cc2)NC1=O` [Example 1200] ({CH2CO}-FYDWL[Bip]V[Orn][dP]NLVSCA-NH2; thioether N-14): the IC50 came out at 0.03 µM.

Consider `CC(C)C[C@@H]1NC(=O)[C@H](CC(N)=O)NC(=O)CN(C)C(=O)[C@H](C)N(C)C(=O)[C@H](C(C)C)NC(=O)[C@H](Cc2ccc(-c3ccccc3)cc2)NC(=O)[C@H](C(C)C)NC(=O)[C@H](Cc2c[nH]c3ccccc23)NC(=O)[C@H](CC(=O)O)NC(=O)[C@H](Cc2ccc(O)cc2)NC(=O)[C@H](Cc2ccccc2)NC(=O)CSC[C@@H](C(=O)NCC(N)=O)NC(=O)[C@H](CO)NC(=O)[C@H](C(C)C)NC1=O` [Example 1202] ({CH2CO}-FYDWV[Bip]V[NMeA][Sar]NLVSCG-NH2; thioether N-14), for which the IC50 worked out at 0.08 µM.

For the compound `CC(C)C[C@@H]1NC(=O)[C@H](CCCNC(=N)N)NC(=O)[C@H](Cc2ccccc2)N(C)C(=O)[C@H](C)N(C)C(=O)[C@H](CCCNC(=N)N)NC(=O)[C@H](Cc2ccc(-c3ccccc3)cc2)NC(=O)[C@H](C(C)C)NC(=O)[C@H](Cc2c[nH]c3ccccc23)NC(=O)[C@H](CC(=O)O)NC(=O)[C@H](Cc2ccc(O)cc2)NC(=O)[C@H](C)NC(=O)CSC[C@@H](C(=O)NCC(N)=O)NC(=O)[C@H](CO)NC(=O)[C@H](C(C)C)NC1=O` [Example 1203] ({CH2CO}-AYDWV[Bip]R[NMeA][NMeF]RLVSCG-NH2; thioether N-14), the IC50 was found to be 0.85 µM.

Regarding `CC(C)C[C@@H]1NC(=O)[C@H](Cc2c[nH]c3ccccc23)NC(=O)[C@H](CC(=O)O)NC(=O)[C@H](Cc2ccc(O)cc2)NC(=O)[C@H](Cc2ccccc2)NC(=O)CSC[C@@H](C(=O)NCC(N)=O)NC(=O)[C@H](CO)NC(=O)[C@H](C(C)C)NC(=O)[C@H](CC(C)C)NC(=O)[C@H](CCCNC(=N)N)NC(=O)CN(C)C(=O)[C@H](C)N(C)C(=O)[C@H](C(C)C)NC(=O)[C@H](Cc2ccc(-c3ccccc3)cc2)NC1=O` [Example 1204] ({CH2CO}-FYDWL[Bip]V[NMeA][Sar]RLVSCG-NH2; thioether N-14), the IC50 turned out to be 0.4 µM.

In the case of `CC(C)C[C@@H]1NC(=O)[C@H](Cc2c[nH]c3ccccc23)NC(=O)[C@H](CC(=O)O)NC(=O)[C@H](Cc2ccc(O)cc2)NC(=O)[C@H](Cc2ccccc2)NC(=O)CSC[C@@H](C(=O)NCC(N)=O)NC(=O)[C@H](CO)NC(=O)[C@H](C(C)C)NC(=O)[C@H](CC(C)C)NC(=O)[C@H](CC(N)=O)NC(=O)[C@H](Cc2ccccc2)N(C)C(=O)[C@H](C)N(C)C(=O)[C@H](C(C)C)NC(=O)[C@H](Cc2ccc(-c3ccccc3)cc2)NC1=O` [Example 1205] ({CH2CO}-FYDWL[Bip]V[NMeA][NMeF]NLVSCG-NH2; thioether N-14), the IC50 worked out at 0.44 µM.

Regarding `CC(C)C[C@@H]1NC(=O)[C@H](CCCNC(=N)N)NC(=O)[C@H](Cc2ccccc2)N(C)C(=O)[C@H](C)N(C)C(=O)[C@H](C(C)C)NC(=O)[C@H](Cc2ccc(-c3ccccc3)cc2)NC(=O)[C@H](C(C)C)NC(=O)[C@H](Cc2c[nH]c3ccccc23)NC(=O)[C@H](CC(=O)O)NC(=O)[C@H](Cc2ccc(O)cc2)NC(=O)[C@H](Cc2ccccc2)NC(=O)CSC[C@@H](C(=O)NCC(N)=O)NC(=O)[C@H](CO)NC(=O)[C@H](C(C)C)NC1=O` [Example 1206] ({CH2CO}-FYDWV[Bip]V[NMeA][NMeF]RLVSCG-NH2; thioether N-14), the IC50 was 0.45 µM.

As for `CC(C)C[C@@H]1NC(=O)[C@H](CC(N)=O)NC(=O)[C@H](Cc2ccccc2)N(C)C(=O)[C@H](C)N(C)C(=O)[C@H](CCCNC(=N)N)NC(=O)[C@H](Cc2ccc(-c3ccccc3)cc2)NC(=O)[C@H](C(C)C)NC(=O)[C@H](Cc2c[nH]c3ccccc23)NC(=O)[C@H](CC(=O)O)NC(=O)[C@H](Cc2ccc(O)cc2)NC(=O)[C@H](Cc2ccccc2)NC(=O)CSC[C@@H](C(=O)NCC(N)=O)NC(=O)[C@H](CO)NC(=O)[C@H](C(C)C)NC1=O` [Example 1207] ({CH2CO}-FYDWV[Bip]R[NMeA][NMeF]NLVSCG-NH2; thioether N-14), the IC50 was 0.32 µM.

Turning to `CC(C)C[C@@H]1NC(=O)[C@H](CCCNC(=N)N)NC(=O)[C@H](Cc2ccccc2)N(C)C(=O)[C@H](C)N(C)C(=O)[C@H](C)NC(=O)[C@H](Cc2ccc(-c3ccccc3)cc2)NC(=O)[C@H](C(C)C)NC(=O)[C@H](Cc2c[nH]c3ccccc23)NC(=O)[C@H](CC(=O)O)NC(=O)[C@H](Cc2ccc(O)cc2)NC(=O)[C@H](Cc2ccccc2)NC(=O)CSC[C@@H](C(=O)NCC(N)=O)NC(=O)[C@H](CO)NC(=O)[C@H](C(C)C)NC1=O` [Example 1208] ({CH2CO}-FYDWV[Bip]A[NMeA][NMeF]RLVSCG-NH2; thioether N-14), the IC50 was 0.82 µM.

For `CC(C)C[C@@H]1NC(=O)[C@H](C)NC(=O)[C@H](Cc2ccccc2)N(C)C(=O)[C@H](C)N(C)C(=O)[C@H](CCCNC(=N)N)NC(=O)[C@H](Cc2ccc(-c3ccccc3)cc2)NC(=O)[C@H](C(C)C)NC(=O)[C@H](Cc2c[nH]c3ccccc23)NC(=O)[C@H](CC(=O)O)NC(=O)[C@H](Cc2ccc(O)cc2)NC(=O)[C@H](Cc2ccccc2)NC(=O)CSC[C@@H](C(=O)NCC(N)=O)NC(=O)[C@H](CO)NC(=O)[C@H](C(C)C)NC1=O` [Example 1209] ({CH2CO}-FYDWV[Bip]R[NMeA][NMeF]ALVSCG-NH2; thioether N-14), the IC50 is 0.78 µM.

In the case of `CC(C)C[C@@H]1NC(=O)[C@H](CCCNC(=N)N)NC(=O)[C@H](Cc2ccccc2)N(C)C(=O)[C@H](C)N(C)C(=O)[C@H](CCCNC(=N)N)NC(=O)[C@H](Cc2ccc(-c3ccccc3)cc2)NC(=O)[C@H](C(C)C)NC(=O)[C@H](Cc2c[nH]c3ccccc23)NC(=O)[C@H](CC(=O)O)NC(=O)[C@H](Cc2ccc(O)cc2)NC(=O)[C@H](CCC(=O)O)NC(=O)CSC[C@@H](C(=O)NCC(N)=O)NC(=O)[C@H](CO)NC(=O)[C@H](C(C)C)NC1=O` [Example 1210] ({CH2CO}-EYDWV[Bip]R[NMeA][NMeF]RLVSCG-NH2; thioether N-14), the half-maximal inhibitory concentration (IC50) was 0.6 µM.

Take `CC(C)C[C@@H]1NC(=O)[C@H](CCCNC(=N)N)NC(=O)[C@H](Cc2ccccc2)N(C)C(=O)[C@H](C)N(C)C(=O)[C@H](CCCNC(=N)N)NC(=O)[C@H](Cc2ccc(-c3ccccc3)cc2)NC(=O)[C@H](C(C)C)NC(=O)[C@H](Cc2c[nH]c3ccccc23)NC(=O)[C@H](CC(=O)O)NC(=O)[C@H](Cc2ccc(O)cc2)NC(=O)[C@H](CCCCN)NC(=O)CSC[C@@H](C(=O)NCC(N)=O)NC(=O)[C@H](CO)NC(=O)[C@H](C(C)C)NC1=O` [Example 1211] ({CH2CO}-KYDWV[Bip]R[NMeA][NMeF]RLVSCG-NH2; thioether N-14): the IC50 was determined as 0.65 µM.

With `CC(C)C[C@@H]1NC(=O)[C@H](CCCNC(=N)N)NC(=O)[C@H](Cc2ccccc2)N(C)C(=O)[C@H](C)N(C)C(=O)[C@H](CCCNC(=N)N)NC(=O)[C@H](Cc2ccc(-c3ccccc3)cc2)NC(=O)[C@H](C(C)C)NC(=O)[C@H](Cc2c[nH]c3ccccc23)NC(=O)[C@H](CC(=O)O)NC(=O)[C@H](Cc2ccc(O)cc2)NC(=O)[C@H](CCCNC(=N)N)NC(=O)CSC[C@@H](C(=O)NCC(N)=O)NC(=O)[C@H](CO)NC(=O)[C@H](C(C)C)NC1=O` [Example 1212] ({CH2CO}-RYDWV[Bip]R[NMeA][NMeF]RLVSCG-NH2; thioether N-14), the IC50 worked out at 0.61 µM.

On to `CC(C)C[C@@H]1NC(=O)[C@H](CCCNC(=N)N)NC(=O)[C@H](Cc2ccccc2)N(C)C(=O)[C@H](C)N(C)C(=O)[C@H](CCCNC(=N)N)NC(=O)[C@H](Cc2ccc(-c3ccccc3)cc2)NC(=O)[C@H](C(C)C)NC(=O)[C@H](Cc2c[nH]c3ccccc23)NC(=O)[C@H](CC(=O)O)NC(=O)[C@H](CCCCN)NC(=O)[C@H](Cc2ccccc2)NC(=O)CSC[C@@H](C(=O)NCC(N)=O)NC(=O)[C@H](CO)NC(=O)[C@H](C(C)C)NC1=O` [Example 1213] ({CH2CO}-FKDWV[Bip]R[NMeA][NMeF]RLVSCG-NH2; thioether N-14), for which the IC50 amounted to 0.59 µM.
